Values after ≈ are worked out from the molar mass of the structure shown.

The values that follow come from ChEMBL document CHEMBL1151722, “Sesquiterpenoids and phenylpropanoids from Chloranthus serratus” (2008).

The assay deals with Helicobacter pylori. Briefly: Antimicrobial activity against Helicobacter pylori-SS1. It counts as functional.
By MIC is commonly meant the least concentration at which growth counts as inhibited. High values mean weaker potency, low ones greater potency. `CC1=C2C(=O)c3c(C)coc3C[C@@]2(C)[C@H](O)CC1=O` [CHLORANTENE D] showed an MIC of 25 µg/mL (≈ 96 µM).

In turn, `C=C1CC/C=C(\C)C(=O)c2occ(C)c2C(=O)C1` [CHLORANTENE E] returned an MIC of 25 µg/mL (≈ 102 µM).

Regarding `C=C[C@]1(C)C(=O)c2occ(C)c2C(=O)[C@H]1C(=C)C` [CHLORANTENE F], inhibition of growth (MIC) required 25 µg/mL (≈ 102 µM).

Regarding `C=C1CCC[C@]2(C)CC[C@@](O)(C(C)C)C(=O)[C@@H]12` [CHLORANTENE G], inhibition of growth (MIC) required 25 µg/mL (≈ 106 µM).
